The values that follow come from patent US12256733B2, “Antimicrobial mixture containing 4-(3-ethoxy-4-hydroxyphenyl)butan-2-one and an acid or silver-based compound, and cosmetic composition containing same” (L'OREAL, priority 2018, dated 2025).

Holding throughout (test): Synergistic antimicrobial activity as MIC, 96-well microplate, optical density at 620 nm
What all share (type): cell-based

Assay [1] has as its system Enterococcus faecalis ATCC 33186. From the text: (§1) 1] with: • MIC of A with B: minimum concentration of product A in the combination A+B which makes it possible to obtain an inhibitory effect; • MIC of B with A: minimum concentration of product B in the combination A+B which makes it possible to obtain an inhibitory effect; • MIC of A: minimum inhibitory concentration of product A alone; • MIC of B: minimum inhibitory concentration of product B alone. This formula was described for the first time in the article by F. C. Kull, P. C. Eisman, H. D. Sylwestrowka, and R. L. Mayer, Applied Microbiology 9:538-541, 1961.
The microbial strain Enterococcus faecalis ATCC 33186 and a double-concentration BHI (Brain Heart Infusion) broth liquid culture medium were used.
(§2) A 96-well microplate at an incubation temperature of 32.5° C. is used.
(§3) The incubation time of the microplate is: • from 24 to 30 h under aerobic conditions for microbial Aspergillus niger ATCC 6275; • from 18 to 24 h under aerobic conditions for Candida albicans ATCC 10231, Pseudomonas aeruginosa ATCC 9027 and Staphylococcus aureus ATCC 6538; • from 24 to 48 h under aerobic conditions for Enterococcus faecalis ATCC 33186. Tests
(§4) A 10% (weight/volume) stock solution was prepared by mixing 1 g of compound in 9 ml of aqueous 1‰ agar solution. Successive dilutions were made with the 1‰ agar solution.
(§5) 50 μl of each of the daughter solutions obtained containing compound A or B are added to the microplate wells. 100 μl of Sabouraud liquid nutrient broth inoculated at double concentration with the Aspergillus niger strain and 50 μl of aqueous 1‰ agar solution are also added thereto.
(§6) 50 μl of each of the daughter solutions obtained containing compound A and 50 μl of each of the daughter solutions obtained containing compound B are added to the microplate wells. 100 μl of Sabouraud liquid nutrient broth inoculated at double concentration with the strain Aspergillus niger are also added thereto.
(§7) A positive microbial growth control was also prepared. The positive microbial growth control corresponds to a mixture of 100 μl of aqueous 1‰ agar solution with 100 μl of Sabouraud liquid nutrient broth inoculated at double concentration with the strain Aspergillus niger in the absence of compounds A and B.
(§8) An absorbance control was performed in parallel on compounds A and B alone. This control corresponds to 100 μl of double concentration sterile Sabouraud liquid nutrient broth+100 μl of double concentration compound A or B.
(§9) In the three cases (absorbance control, growth control and test), the final volume present in each of the microplate wells is 200 μl.
(§10) The test as described above (tests, absorbance control and growth control) was performed again to test the combination A+B on the following strains Enterococcus faecalis, Staphylococcus aureus, Pseudomonas aeruginosa, Candida albicans, where appropriate.

For assay [2], the system named is Staphylococcus aureus ATCC 6538.
From the text: as §1
(§11) When the FIC index value is less than or equal to 1, it is considered that the combination of test compounds has a synergistic effect.
The microbial strain Staphylococcus aureus ATCC 6538 and a double-concentration nutrient broth liquid culture medium were used.
as §2, §3, §4, §5, §6, §7, §8, §9
(§12) In the two cases (test and control), the inoculum represents the concentration of the Aspergillus niger strain present in the final volume of the wells (200 μl) and is between 2 and 6×10^5 cfu/ml of Aspergillus niger.
as §10
The following results were obtained with the compound B1=trisodium salt of ethylenediaminedisuccinic acid (as an aqueous solution at 30% by weight): sold under the name Natrlquest E30 by the company Innospec Active Chemicals.

Assay [3] deals with Aspergillus niger ATCC 6275.
From the text: as §1
The microbial strain Aspergillus niger ATCC 6275, and a double-concentration Sabouraud broth liquid culture medium supplemented with polyoxyethylenated (20 OE) sorbitan monopalmitate (Tween 40 from Croda) and Phytagel© BioReagent were used (i.e. a mixture of 5 g of Phytagel+0.6 g of Tween 40+60 g of Sabouraud broth).
as §2, §3, §4, §5, §6, §7, §8, §9, §12

The subject of assay [4] is Candida albicans ATCC 10231.
From the text: as §1, §11
The microbial strain Candida albicans ATCC 10231, and a double-concentration Sabouraud broth liquid culture medium were used (i.e. a mixture of 5 g of Phytagel+0.6 g Tween 40+60 g of Sabouraud broth).
as §2, §3, §4, §5, §6, §7, §8, §9, §10

The mark [5] stands for this setting: first concentration with growth <= 25%.
The mark [6] stands for this setting: 0.0625% A alone (active material weight %).

In the case of `O=C([O-])CNCO.[Na+]` [B4, sodium hydroxymethylglycinate], the microbial growth percentage in assay [1] (0.005% B4 alone) stood at 32%; in assay [1] (0.01% B4 alone), 11%. Further, in assay [1] (setting [5]), the “% MIC of B4 alone” value amounted to 0.1%.
`O=C([O-])C[C@H](NCCN[C@@H](CC(=O)[O-])C(=O)O)C(=O)[O-].[Na+].[Na+].[Na+]` [B1, trisodium salt of ethylenediaminedisuccinic acid]: the microbial growth percentage in assay [2] (0.0375% B1 alone) was 97%; in assay [2] (0.075% B1 alone), 80%; in assay [2] (0.15% B1 alone) it was 66%; in assay [2] (0.3% B1 alone), 37%; in assay [2] (0.6% B1 alone), 1%. The “% MIC of B1 alone” value in assay [2] (setting [5]) turned out to be 0.6%.
With silver citrate hydrate [B3], the results for the microbial growth percentage in assay [3] (0.025% B3 alone), in assay [3] (0.05% B3 alone) and in assay [3] (0.1% B3 alone) were 47%, 40% and 9%, respectively. Further, in assay [3] (setting [5]), the “% MIC of B3 alone” value is on record as 0.1%.
For `CCOc1cc(CCC(C)=O)ccc1O` [A, 4-(3-ethoxy-4-hydroxyphenyl)butan-2-one], the microbial growth percentage is recorded as 76% in assay [2] (setting [6]); 72% in assay [2] (0.125% A alone); 71% in assay [2] (0.25% A alone); 40% in assay [2] (0.5% A alone); −23% in assay [2] (1% A alone); 76% in assay [4] (setting [6]). In addition, the microbial growth percentage in assay [4] (0.125% A alone) turned out to be 64%; in assay [4] (0.25% A alone) it was 36%; in assay [4] (0.5% A alone) it was 5%; in assay [3] (0.025% A alone (weight %)) it was 44%; in assay [3] (0.05% A alone), 32%; in assay [3] (0.1% A alone), 13%. Moreover, the microbial growth percentage is listed as 31% in assay [1] (setting [6]), 36% in assay [1] (0.125% A alone), 39% in assay [1] (0.25% A alone) and −9% in assay [1] (0.5% A alone). Further, the entries for the “% MIC of A alone” value in assay [2] (setting [5]), in assay [4] (setting [5]) and in assay [3] (setting [5]) were 1%, 0.5% and 0.1%, respectively. Also, in assay [1] (setting [5]), the “MIC of product alone” value is 0.5%.
As for `CCCCCC1C(O)CCC1CC(=O)[O-].[Na+]` (stereo not drawn) [B2, sodium salt of 3-hydroxy-2-pentylcyclopentaneacetic acid], the results for the microbial growth percentage in assay [4] (0.34% B2 alone) and in assay [4] (0.68% B2 alone) were 43% and 6%, respectively. Moreover, in assay [4] (setting [5]), the “% MIC of B2 alone” value stood at 0.68%.
